Paper PMC10817917, “Alkyl deoxyglycoside-polymyxin combinations against critical priority carbapenem-resistant gram-negative bacteria” (Scientific Reports, 2024)
In brackets after ≈: the same amount, converted by molar mass. Where two headings read alike, the source gives them in different places.

Tests used:
[1] = tested on: Bacillus anthracis (Sterne, ovine and pathogenic forms), Enterococcus faecalis and Bacillus cereus; details: Gram-positive bacteria; cited from earlier work
P. aeruginosa CQ4924 = test: Broth microdilution MIC, glycosides with or without polymyxins; assay type: cell-based, Pseudomonas aeruginosa; details: for MIC: Pseudomonas aeruginosa, CQ4924
K. pneumoniae CQ1942 = test: as above; assay type: cell-based, Klebsiella pneumoniae; details: for MIC: Klebsiella pneumoniae, CQ1942
E. coli ATCC 25922 = test: Broth microdilution MIC/MBC, glycosides with or without polymyxins; assay type: cell-based, Escherichia coli; details: for MIC: Escherichia coli, ATCC25922
E. coli NCTC 13846 = test: as above; assay type: cell-based, Escherichia coli; details: strain B
K. pneumoniae CQ4921 = test: as above; assay type: cell-based, Klebsiella pneumoniae; details: strain C
[2] = alone, read-out: MICA (MIC of each compound individually)
[3] = combination with the lowest FICI
[4] = compound + colistin, lowest FICI

CCCCCCCCCCCCO[C@H]1O[C@H](C)C[C@H](O)[C@H]1O [Compound 1, dodecyl 4,6-dideoxy-α/β-D-xylo-hexopyranoside]
MIC [1]: 12.6 µM (≈ 3.99 µg/mL)
MIC of colistin in combination with the compound (P. aeruginosa CQ4924; Cpd conc. 0.4 μg/mL, strain H): > 0.5 µg/mL
MIC of colistin in combination with the compound (P. aeruginosa CQ4924; Cpd conc. 0.8 μg/mL, strain H): > 0.5 µg/mL
MIC of colistin in combination with the compound (P. aeruginosa CQ4924; Cpd conc. 3.125 μg/mL, strain H): > 0.5 µg/mL
MIC of colistin in combination with the compound (P. aeruginosa CQ4924; Cpd conc. 6.25 μg/mL, strain H): > 0.5 µg/mL
MIC of colistin in combination with the compound (P. aeruginosa CQ4924; Cpd conc. 12.5 μg/mL, strain H): > 0.5 µg/mL
MIC of colistin in combination with the compound (P. aeruginosa CQ4924; Cpd conc. […], strain H): > 0.5 µg/mL
MIC of compound in combination with PMB (P. aeruginosa CQ4924; PMB 0.25 μg/mL, strain H): > 100 µg/mL
MIC of compound in combination with PMB (P. aeruginosa CQ4924; PMB 0.5 μg/mL, strain H): > 100 µg/mL
MIC (P. aeruginosa CQ4924; agent alone, no adjuvant (polymyxin conc. 0), strain H, read-out: MIC): > 100 µg/mL
MIC (P. aeruginosa CQ4924; [2]): > 100 µg/mL
MIC of compound in combination with colistin (P. aeruginosa CQ4924; colistin 0.06 μg/mL, strain H): > 100 µg/mL
MIC of compound in combination with colistin (P. aeruginosa CQ4924; colistin 0.125 μg/mL, strain H): > 100 µg/mL
MIC of compound in combination with colistin (P. aeruginosa CQ4924; colistin 0.25 μg/mL, strain H): > 100 µg/mL
MIC of colistin in combination with the compound (K. pneumoniae CQ1942; Cpd conc. 0.4 μg/mL, strain E): > 0.5 µg/mL
MIC of colistin in combination with the compound (K. pneumoniae CQ1942; Cpd conc. 0.8 μg/mL, strain E): 0.5 µg/mL
MIC of colistin in combination with the compound (K. pneumoniae CQ1942; Cpd conc. 3.125 μg/mL, strain E): 0.25 µg/mL
MIC of colistin in combination with the compound (K. pneumoniae CQ1942; Cpd conc. 6.25 μg/mL, strain E): 0.25 µg/mL
MIC of colistin in combination with the compound (K. pneumoniae CQ1942; Cpd conc. 12.5 μg/mL, strain E): 0.25 µg/mL
MIC of colistin in combination with the compound (K. pneumoniae CQ1942; Cpd conc. […], strain E): 0.5 µg/mL
MIC (K. pneumoniae CQ1942; agent alone, no adjuvant (polymyxin conc. 0), strain E, read-out: MIC): > 100 µg/mL
MIC (K. pneumoniae CQ1942; [2]): > 100 µg/mL
MIC of compound in combination with PMB (K. pneumoniae CQ1942; PMB 0.25 μg/mL, strain E): > 100 µg/mL
MIC of compound in combination with PMB (K. pneumoniae CQ1942; PMB 0.5 μg/mL, strain E): 1.6 µg/mL
MIC of compound in combination with colistin (K. pneumoniae CQ1942; colistin 0.06 μg/mL, strain E): > 100 µg/mL
MIC of compound in combination with colistin (K. pneumoniae CQ1942; colistin 0.125 μg/mL, strain E): > 100 µg/mL
MIC of compound in combination with colistin (K. pneumoniae CQ1942; colistin 0.25 μg/mL, strain E): 3.1 µg/mL
MIC of compound in combination with colistin (K. pneumoniae CQ1942; colistin 0.5 μg/mL, strain E): 0.8 µg/mL
MICA(A + B) (MIC of compound in combination with colistin) (K. pneumoniae CQ1942; [3]): 3.125 µg/mL
MICB(A + B) (MIC of colistin in combination with compound) (K. pneumoniae CQ1942; [3]): 0.25 µg/mL
Interpretation (of FICI) (K. pneumoniae CQ1942; compound + colistin): Additive (from 0.5 to 1.0 were additive)
FICI (K. pneumoniae CQ1942; [4]): 0.52
MIC of colistin in combination with the compound (E. coli ATCC 25922; Cpd conc. 0.4 μg/mL, strain A): > 0.5 µg/mL
MIC of colistin in combination with the compound (E. coli ATCC 25922; Cpd conc. 0.8 μg/mL, strain A): > 0.5 µg/mL
MIC of colistin in combination with the compound (E. coli ATCC 25922; Cpd conc. 3.125 μg/mL, strain A): 0.25 µg/mL
MIC of colistin in combination with the compound (E. coli ATCC 25922; Cpd conc. 6.25 μg/mL, strain A): 0.25 µg/mL
MIC of colistin in combination with the compound (E. coli ATCC 25922; Cpd conc. 12.5 μg/mL, strain A): 0.25 µg/mL
MIC of colistin in combination with the compound (E. coli ATCC 25922; Cpd conc. […], strain A): > 0.5 µg/mL
MIC (E. coli ATCC 25922; agent alone, no adjuvant (polymyxin conc. 0), strain A, read-out: MIC): > 100 µg/mL
MIC (E. coli ATCC 25922; [2]): > 100 µg/mL
MIC of compound in combination with PMB (E. coli ATCC 25922; PMB 0.25 μg/mL, strain A): > 100 µg/mL
MIC of compound in combination with PMB (E. coli ATCC 25922; PMB 0.5 μg/mL, strain A): 3.1 µg/mL
MIC of compound in combination with colistin (E. coli ATCC 25922; colistin 0.06 μg/mL, strain A): > 100 µg/mL
MIC of compound in combination with colistin (E. coli ATCC 25922; colistin 0.125 μg/mL, strain A): > 100 µg/mL
MIC of compound in combination with colistin (E. coli ATCC 25922; colistin 0.25 μg/mL, strain A): 3.1 µg/mL
MIC of compound in combination with colistin (E. coli ATCC 25922; colistin 0.5 μg/mL, strain A): 3.1 µg/mL
MICA(A + B) (MIC of compound in combination with colistin) (E. coli ATCC 25922; [3]): 3.125 µg/mL
MICB(A + B) (MIC of colistin in combination with compound) (E. coli ATCC 25922; [3]): 0.25 µg/mL
Interpretation (of FICI) (E. coli ATCC 25922; compound + colistin): Additive (from 0.5 to 1.0 were additive)
FICI (E. coli ATCC 25922; [4]): 0.52
MIC of colistin in combination with the compound (E. coli NCTC 13846; Cpd conc. 0.4 μg/mL): > 0.5 µg/mL
MIC of colistin in combination with the compound (E. coli NCTC 13846; Cpd conc. 0.8 μg/mL): > 0.5 µg/mL
MIC of colistin in combination with the compound (E. coli NCTC 13846; Cpd conc. 3.125 μg/mL): > 0.5 µg/mL
MIC of colistin in combination with the compound (E. coli NCTC 13846; Cpd conc. 6.25 μg/mL): > 0.5 µg/mL
MIC of colistin in combination with the compound (E. coli NCTC 13846; Cpd conc. 12.5 μg/mL): > 0.5 µg/mL
MIC of colistin in combination with the compound (E. coli NCTC 13846; Cpd conc. […]): > 0.5 µg/mL
MIC (E. coli NCTC 13846; Escherichia coli, NCTC13846, agent alone, no adjuvant (polymyxin conc. 0), read-out: MIC): > 100 µg/mL
MIC of compound in combination with PMB (E. coli NCTC 13846; PMB 0.25 μg/mL): > 100 µg/mL
MIC of compound in combination with PMB (E. coli NCTC 13846; PMB 0.5 μg/mL): > 100 µg/mL
MIC of compound in combination with colistin (E. coli NCTC 13846; colistin 0.06 μg/mL): > 100 µg/mL
MIC of compound in combination with colistin (E. coli NCTC 13846; colistin 0.125 μg/mL): > 100 µg/mL
MIC of compound in combination with colistin (E. coli NCTC 13846; colistin 0.25 μg/mL): > 100 µg/mL
MIC of compound in combination with colistin (E. coli NCTC 13846; colistin 0.5 μg/mL): > 100 µg/mL
MIC of colistin in combination with the compound (K. pneumoniae CQ4921; Cpd conc. 0.4 μg/mL): > 0.5 µg/mL
MIC of colistin in combination with the compound (K. pneumoniae CQ4921; Cpd conc. 0.8 μg/mL): > 0.5 µg/mL
MIC of colistin in combination with the compound (K. pneumoniae CQ4921; Cpd conc. 3.125 μg/mL): 0.25 µg/mL
MIC of colistin in combination with the compound (K. pneumoniae CQ4921; Cpd conc. 6.25 μg/mL): 0.25 µg/mL
